The values that follow come from patent US8962616B2, “Heterocyclic substituted hexahydropyrano[3,4-d][1,3]thiazin-2-amine compounds” (Pfizer Inc., priority 2012, dated 2015).

Test [1] deals with H4 human neuroglioma cells over-expressing the wild-type human APP695. Briefly: sAPPβ Whole-Cell Assay (in vitro sAPPb assay, ELISA). The settings on record: Homo sapiens, 18 hours, geometric mean of 2-7 determinations (values marked b: single determination). In kind it is cell-based. The method, then: Whole Cell-Free Assay (In Vitro sAPPb Assay):
H4 human neuroglioma cells over-expressing the wild-type human APP695 are treated for 18 hours with compound in a final concentration 1% DMSO. sAPPβ levels are measured using TMB-ELISA with capture APP N-terminal antibody (Affinity BioReagents, OMA1-03132), wild-type sAPPβ specific reporter p192 (Elan), and tertiary anti rabbit-HRP (GE Healthcare).
A general note: ELISA stands for enzyme-linked immunosorbent assay.

The target of test [2] is BACE1 enzyme (Homo sapiens (Human), UniProt P56817). The test is described as follows: BACE1 Cell-Free Assay (fluorescence polarization, synthetic APP substrate). It counts as biochemical. The settings on record: geometric mean of 2-7 determinations (values marked b: single determination). From the text:
This assay measures the inhibition of the beta-secretase enzyme as it cleaves a non-native peptide.
A synthetic APP substrate that can be cleaved by beta-secretase having N-terminal biotin and made fluorescent by the covalent attachment of Oregon Green at the Cys residue is used to assay beta-secretase activity in the presence or absence of the inhibitory compounds. […] The BACE1 enzyme is affinity purified material from conditioned media of CHO-K1 cells that have been transfected with a soluble BACE construct (BACE1deltaTM96His). Compounds are incubated in a ½ log dose response curve from a top concentration of 100 μM with BACE1 enzyme and the biotinylated fluorescent peptide in 384-well black plates (Thermo Scientific #4318). BACE1 is at a final concentration of 0.1 nM with a final concentration of peptide substrate of 150 nM in a reaction volume of 30 μL assay buffer (100 mM sodium acetate, pH 4.5 (brought to pH with acetic acid), and 0.001% Tween-20). Plates are covered and incubated for 3 hours at 37° C. The reaction is stopped with the addition of 30 μL of 1.5 μM Streptavidin (Pierce, #21125). After a 10 minute incubation at room temperature, plates are read on a PerkinElmer Envision for fluorescent polarization (Ex485 nm/Em530 nm). The activity of the beta-secretase enzyme is detected by changes in the fluorescence polarization that occur when the substrate is cleaved by the enzyme.

Test [3] concerns the target BACE2 enzyme (Homo sapiens (Human), UniProt Q9Y5Z0). The test is described as follows: BACE2 Cell-free Assay (fluorescence polarization, synthetic substrate). In kind it is biochemical. Conditions: single determination. The procedure:
This assay measures the inhibition of the BACE2 enzyme as it cleaves a non-native peptide. A synthetic substrate that can be cleaved by BACE2 having N-terminal biotin and made fluorescent by the covalent attachment of Oregon Green at the Cys residue is used to assay BACE2 activity in the presence or absence of the inhibitory compounds. The substrate is Biotin-[…]-C(Oregon green)-KK-OH. The BACE2 enzyme is available from Enzo Life Sciences (Cat # BML-SE550). Compounds are incubated in a ½ log dose response curve from a top concentration of 100 μM with BACE2 enzyme and the biotinylated fluorescent peptide in 384-well black plates (Thermo Scientific #4318). BACE2 is at a final concentration of 2.5 nM with a final concentration of peptide substrate of 150 nM in a reaction volume of 30 μL assay buffer (100 mM Sodium Acetate, pH 4.5 (brought to pH with acetic acid), and 0.001% Tween-20). Plates are covered and incubated for 3 hours at 37° C. The reaction is stopped with the addition of 30 μL of 1.5 μM Streptavidin (Pierce, #21125). After a 10 minute incubation at room temperature, plates are read on a PerkinElmer Envision for fluorescent polarization (Ex485 nm/Em530 nm). The activity of the beta-secretase enzyme is detected by changes in the fluorescence polarization that occur when the substrate is cleaved by the enzyme.
(Polarisation of emitted light reports the rotation of a fluorescent probe.)

Molecules are shown by their SMILES.

Chain of BACE2 enzyme (Q9Y5Z0 63-518): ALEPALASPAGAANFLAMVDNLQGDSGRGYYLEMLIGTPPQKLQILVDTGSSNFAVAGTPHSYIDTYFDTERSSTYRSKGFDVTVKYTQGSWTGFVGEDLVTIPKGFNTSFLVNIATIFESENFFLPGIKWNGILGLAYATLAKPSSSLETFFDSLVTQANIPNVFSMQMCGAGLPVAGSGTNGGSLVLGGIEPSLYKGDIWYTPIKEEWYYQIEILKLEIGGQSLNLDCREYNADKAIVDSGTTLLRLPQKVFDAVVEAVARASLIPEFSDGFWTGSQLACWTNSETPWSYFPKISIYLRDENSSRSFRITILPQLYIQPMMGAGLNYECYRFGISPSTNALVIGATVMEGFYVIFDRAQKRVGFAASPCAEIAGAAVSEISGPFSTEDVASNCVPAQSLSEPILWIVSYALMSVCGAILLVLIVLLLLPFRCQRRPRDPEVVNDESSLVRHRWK
Chain of BACE1 enzyme (P56817 46-457): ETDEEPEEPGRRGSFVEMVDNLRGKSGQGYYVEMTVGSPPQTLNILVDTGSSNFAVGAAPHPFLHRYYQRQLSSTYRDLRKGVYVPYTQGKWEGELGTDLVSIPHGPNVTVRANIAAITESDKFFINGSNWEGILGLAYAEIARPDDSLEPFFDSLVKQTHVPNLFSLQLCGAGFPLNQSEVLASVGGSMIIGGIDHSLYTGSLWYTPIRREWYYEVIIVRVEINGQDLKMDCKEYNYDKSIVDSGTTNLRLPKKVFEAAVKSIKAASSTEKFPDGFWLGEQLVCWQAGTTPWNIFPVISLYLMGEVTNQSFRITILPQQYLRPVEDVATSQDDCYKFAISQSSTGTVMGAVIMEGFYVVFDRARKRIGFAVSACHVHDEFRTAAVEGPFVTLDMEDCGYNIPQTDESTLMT

For orientation: IC50 means the concentration that inhibits the measured activity by half. Read a high IC50 as lower potency. Take `NC1=N[C@@]2(c3ccc(F)cc3F)CO[C@@H](c3ccncn3)C[C@H]2CS1` [Example 18, (4aR,6R,8aS)-8a-(2,4-difluorophenyl)-6-(pyrimidin-4-yl)-4,4a,5,6,8,8a-hexahydropyrano[3,4-d][1,3]thiazin-2-amine]: the IC50 in test [1] was 28 nM; in test [2], 390 nM; in test [3], 695 nM.

On to `NC1=N[C@@]2(c3ccc(F)cc3F)CO[C@@H](c3nc(C(F)(F)F)co3)C[C@H]2CS1` [Example 20, (4aR,6R,8aS)-8a-(2,4-difluorophenyl)-6-[4-(trifluoromethyl)-1,3-oxazol-2-yl]-4,4a,5,6,8,8a-hexahydropyrano[3,4-d][1,3]thiazin-2-amine], for which the IC50 in test [1] amounted to 14 nM; in test [2] it was 467 nM; in test [3], 629 nM.

For `NC1=N[C@@]2(c3ccc(F)cc3F)CO[C@@H](c3ncccn3)C[C@H]2CS1` [Example 21, (4aR,6R,8aS)-8a-(2,4-difluorophenyl)-6-(pyrimidin-2-yl)-4,4a,5,6,8,8a-hexahydropyrano[3,4-d][1,3]thiazin-2-amine], the IC50 in test [1] was found to be 44 nM; in test [2], 983 nM; in test [3], 3090 nM.
